| Structure (SMILES) | melting point [°C] |
| --- | --- |
| Cn1cc(-c2nc(C(F)F)c(C(=O)N3CCC(O)(c4ccc(Cl)cc4)CC3)cc2C#N)cn1 | 220 |
| CO[C@@]1(c2ccc(C)cc2)[C@@H]2CC[C@H]1CN(C(=O)c1cc(C#N)c(-c3ccc(C(F)(F)F)cc3)nc1C(F)F)C2 | 228 to 230 |
| N#Cc1cc(C(=O)N2CCC(c3noc(O)n3)C2)c(C(F)F)nc1-c1ccc(C(F)(F)F)cc1 (centres unmarked) | 181 to 184 |
| CCCn1cc(-c2nc(C(F)F)c(C(=O)N3CCC(O)(c4ccc(Cl)cc4)CC3)cc2C#N)cn1 | 193 to 195 |
| Cc1nc(C2CCN(C(=O)c3cc(C#N)c(-c4ccc(Cl)s4)nc3C)CC2)no1 | 69 to 71 |
| Cc1nc(C2CCN(C(=O)c3cc(C#N)c(-c4ccc(C(F)(F)F)cn4)nc3C)CC2)no1 | 60 to 62 |

Other lines, results leading:

| melting point [°C] | Structure (SMILES) |
| --- | --- |
| 177 to 180 | N#Cc1cc(C(=O)N2CCC(O)(c3ccc(Cl)cc3)CC2)c(C(F)F)nc1-c1ccc(C(F)(F)F)nc1 |
| 150 to 155 | N#Cc1cc(C(=O)N2CCC(O)(c3ccc(Cl)cc3)CC2)c(C(F)F)nc1-c1ccnc(F)c1 |
| 200 | N#Cc1cc(C(=O)N2CCC(O)(c3ccc(Cl)cc3)CC2)c(C(F)F)nc1-c1ccc(C(F)(F)F)cc1 |
| 191 to 195 | N#Cc1cc(C(=O)N2CCC(O)(c3ccccc3Cl)C2)c(C(F)F)nc1-c1ccc(C(F)(F)F)cc1 (centres unmarked) |
| 175 to 177 | N#Cc1cc(C(=O)N2CCC(O)(c3ccc(Cl)cc3)CC2)c(C(F)F)nc1-c1ccc(Cl)cn1 |

Source: US11178872B2 (dated 2021)
